For 27 molecules, EC50 results are on record in patent US20240246937A1 (MERCK SHARP & DOHME LLC, priority 2021, published 2024).

This test concerns the target recombinant IL4I1 (Homo sapiens (Human), UniProt Q96RQ9). The test is described as follows: IL4I1 Enzymatic Assay (Amplex Red/HRP coupled fluorescence detection of H2O2). It counts as biochemical. The note with it: 240 min; recombinant IL4I1, four-hour pre-incubation with compound. On the procedure: Interleukin 4 inducible protein 1 (IL4I1) is an L-amino oxidase that catalyzes the oxidation of aromatic residues (Phe, Trp and Tyr): L-amino acid+H2O+O2→2-oxo acid+NH3+H2O2. Equal molar of H2O2 and the corresponding alpha-ketoacid are produced when IL4I1 and substrate are added. In this assay, the hydrogen peroxide generated by IL4I1 is then detected through a coupled reaction with Amplex® Red (10-acetyl-3,7-dihydroxyphenoxazine) and horseradish peroxidase (HRP) to produce resorufin product that could be detected in the form of fluorescence signals. The assessment of the inhibitory effect of small molecules (EC50) on IL4I1 is measured by the effectiveness of the compounds to inhibit the production of H2O2.
Using this assay, the potency (EC50) of each compound was determined from a ten-point (1:3 serial dilution) titration curve using the following outlined procedure. To each well of a black flat-bottom Greiner (Cat #781076) 384 well-plate, 25 nL of compound (0.1% DMSO in final assay volume of 25 μL) was dispensed, followed by the addition of 12.5 μL of 1× assay buffer (50 mM Hepes 7.0 and 0.005% Tween20 (Sigma, Cat #P8341; low peroxide grade)) containing 2 nM of recombinant IL4I1 (R&D Systems, Cat #5684-AO-020). Plates were placed in an ambient temperature humidified chamber for a four-hour pre-incubation with compound. Subsequently, each reaction was initiated by the addition of 12.5 μL 1× assay buffer containing 2 mM of each aromatic amino acids (Phe/Tyr/Trp), 0.1 mM Amplex Red and 2 U/mL of HRP. The final reaction in each well of 25 μL consisted of 1 nM of IL4I1, 1 mM of each residues (Phe, Tyr and Trp), 0.05 mM Amplex Red and 1 U/mL of HRP. It should be noted that the concentrations of Amplex Red and HRP used here were in excess such that the conversion of H2O2 to resorufin product occurred instantaneously and was non-rate limiting. Reactions were allowed to proceed for 120 minutes followed by fluorescence readout on a Spectramax with the following set parameters: 544 nm excitation/590 nm emission, 570 nm cutoff (EnVision is an alternative reader). Dose-response curves were generated by plotting percent effect (% product conversion; Y-axis) vs. Log10 compound concentrations (X-axis). EC50 values were calculated using a non-linear regression, four-parameters sigmoidal dose-response model and are shown in Potency Table 1.

Sequence of recombinant IL4I1 (Q96RQ9 22-567): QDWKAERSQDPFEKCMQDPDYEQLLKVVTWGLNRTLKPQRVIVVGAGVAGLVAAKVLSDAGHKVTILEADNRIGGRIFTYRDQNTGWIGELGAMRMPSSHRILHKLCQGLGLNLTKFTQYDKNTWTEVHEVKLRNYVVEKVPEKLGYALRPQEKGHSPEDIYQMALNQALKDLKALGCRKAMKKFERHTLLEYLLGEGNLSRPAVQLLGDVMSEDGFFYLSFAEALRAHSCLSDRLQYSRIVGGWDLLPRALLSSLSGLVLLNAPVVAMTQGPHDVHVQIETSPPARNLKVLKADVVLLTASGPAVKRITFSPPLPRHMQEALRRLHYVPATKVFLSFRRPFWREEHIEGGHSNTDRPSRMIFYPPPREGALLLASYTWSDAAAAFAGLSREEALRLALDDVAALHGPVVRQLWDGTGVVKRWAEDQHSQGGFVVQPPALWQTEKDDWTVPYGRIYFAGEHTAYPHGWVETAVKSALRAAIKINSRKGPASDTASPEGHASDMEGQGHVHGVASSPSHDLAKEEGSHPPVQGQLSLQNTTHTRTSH

Turning to `O=c1c(=O)n([C@H]2C[C@@H](c3ccccc3)C2)ccn1Cc1nnc(-c2ccccc2)s1` [Example 48, 1-((5-phenyl-1,3,4-thiadiazol-2-yl)methyl)-4-((cis)-3-phenylcyclobutyl)-1,4-dihydropyrazine-2,3-dione], the EC50 (as a rule, the concentration that produces a half-maximal response) stood at 2 nM. For `O=c1c(=O)n(C2CCC2)ccn1Cc1ccc(-c2ccccc2F)nn1` [Example 49, 1-cyclobutyl-4-((6-(2-fluorophenyl)pyridazin-3-yl)methyl)-1,4-dihydropyrazine-2,3-dione] the value was 3 nM; for `O=c1c(=O)n([C@H]2C[C@H]3C[C@H]3C2)ccn1Cc1ccc(-c2ccccc2F)nn1` [Example 50, 1-((cis)-bicyclo[3.1.0]hexan-3-yl)-4-((6-(2-fluorophenyl)pyridazin-3-yl)methyl)-1,4-dihydropyrazine-2,3-dione], 4 nM; for `O=C1C(=O)N([C@H]2C[C@H]3C[C@H]3C2)CCN1Cc1ccc(-c2ccccc2F)nn1` [Example 51, 1-((1R,3r,5S)-bicyclo[3.1.0]hexan-3-yl)-4-((6-(2-fluorophenyl)pyridazin-3-yl)methyl)piperazine-2,3-dione], 8 nM. `O=c1c(=O)n(C2CCCC2)ccn1Cc1ccc(-c2ccccc2)nn1` [Example 52, 1-cyclopentyl-4-((6-phenylpyridazin-3-yl)methyl)-1,4-dihydropyrazine-2,3-dione]: the half-maximal effective concentration (EC50) was determined as 4 nM. Regarding `O=c1c(=O)n(C2CCCC2)ccn1Cc1ccc(-c2ccccc2F)nn1` [Example 53, 1-cyclopentyl-4-((6-(2-fluorophenyl)pyridazin-3-yl)methyl)-1,4-dihydropyrazine-2,3-dione], the 50% effective concentration (EC50) turned out to be 7 nM. For `O=c1c(=O)n(C2CCC2)ccn1Cc1cc(-c2cccc(F)c2)on1` [Example 54, 1-cyclobutyl-4-((5-(3-fluorophenyl)isoxazol-3-yl)methyl)-1,4-dihydropyrazine-2,3-dione] the value was 2 nM; for `O=c1c(=O)n(C2CCC2)ccn1Cc1cc(-c2ccc(F)cc2)on1` [Example 55, 1-cyclobutyl-4-((5-(4-fluorophenyl)isoxazol-3-yl)methyl)-1,4-dihydropyrazine-2,3-dione], 1 nM; for `O=c1c(=O)n(C2CCC2)ccn1Cc1cc(-c2ccccc2)on1` [Example 56, 1-cyclobutyl-4-((5-phenylisoxazol-3-yl)methyl)-1,4-dihydropyrazine-2,3-dione], 1 nM.

For the molecule `O=c1c(=O)n(C2CCC2)ccn1Cc1cc(-c2ccccc2F)on1` [Example 57, 1-cyclobutyl-4-((5-(2-fluorophenyl)isoxazol-3-yl)methyl)-1,4-dihydropyrazine-2,3-dione], the half-maximal effective concentration (EC50) was determined as 3 nM. For the molecule `O=c1c(=O)n([C@H]2C[C@H]3C[C@H]3C2)ccn1Cc1ccc(-c2ccccc2)nn1` [Example 58, 1-((cis)-bicyclo[3.1.0]hexan-3-yl)-4-((6-phenylpyridazin-3-yl)methyl)-1,4-dihydropyrazine-2,3-dione], the EC50 was 4 nM. Regarding `O=c1c(=O)n(C2CCCC2)ccn1Cc1ccc(-c2cccc(F)c2)nn1` [Example 59, 1-cyclopentyl-4-((6-(3-fluorophenyl)pyridazin-3-yl)methyl)-1,4-dihydropyrazine-2,3-dione], the EC50 was determined as 5 nM. The result for `O=C1C(=O)N(C2CCCC2)CCN1Cc1cc(-c2ccccc2F)on1` [Example 60, 1-cyclopentyl-4-((5-(2-fluorophenyl)isoxazol-3-yl)methyl)piperazine-2,3-dione] reads 10 nM; that for `O=c1c(=O)n(C2CCCC2)ccn1Cc1cc(-c2ccccc2F)on1` [Example 61, 1-cyclopentyl-4-((5-(2-fluorophenyl)isoxazol-3-yl)methyl)-1,4-dihydropyrazine-2,3-dione], 5 nM. Turning to `O=C1C(=O)N([C@H]2C[C@H]3C[C@H]3C2)CCN1Cc1ccc(-c2ccccc2F)nn1` [Example 62, 1-((cis)-bicyclo[3.1.0]hexan-3-yl)-4-((6-(2-fluorophenyl)pyridazin-3-yl)methyl)piperazine-2,3-dione], the EC50 is 4 nM. `O=c1c(=O)n(C2CCC2)ccn1Cc1ccc(-c2cccc(F)c2)nn1` [Example 63, 1-cyclobutyl-4-((6-(3-fluorophenyl)pyridazin-3-yl)methyl)-1,4-dihydropyrazine-2,3-dione]: the half-maximal effective concentration (EC50) is 3 nM. The result for `O=c1c(=O)n(C23CC(C2)C3)ccn1Cc1ccc(-c2cccc(F)c2)nn1` [Example 64, 1-(bicyclo[1.1.1]pentan-1-yl)-4-((6-(3-fluorophenyl)pyridazin-3-yl)methyl)-1,4-dihydropyrazine-2,3-dione] reads 4 nM. The result for `O=C1C(=O)N(C23CC(C2)C3)CCN1Cc1ccc(-c2cccc(F)c2)nn1` [Example 65, 1-(bicyclo[1.1.1]pentan-1-yl)-4-((6-(3-fluorophenyl)pyridazin-3-yl)methyl)piperazine-2,3-dione] reads 4 nM. Turning to `O=C1C(=O)N(C23CC(C2)C3)CCN1Cc1ccc(-c2ccccc2F)nn1` [Example 66, 1-(bicyclo[1.1.1]pentan-1-yl)-4-((6-(2-fluorophenyl)pyridazin-3-yl)methyl)piperazine-2,3-dione], the EC50 amounted to 7 nM. The result for `O=c1c(=O)n([C@H]2C[C@H]3C[C@H]3C2)ccn1Cc1cc(-c2cccc(F)c2)on1` [Example 67, 1-((cis)-bicyclo[3.1.0]hexan-3-yl)-4-((5-(3-fluorophenyl)isoxazol-3-yl)methyl)-1,4-dihydropyrazine-2,3-dione] reads 1 nM; that for `O=c1c(=O)n(C23CC(C2)C3)ccn1Cc1nnc(-c2ccccc2F)s1` [Example 68, 1-(bicyclo[1.1.1]pentan-1-yl)-4-((5-(2-fluorophenyl)-1,3,4-thiadiazol-2-yl)methyl)-1,4-dihydropyrazine-2,3-dione], 5 nM; that for `O=C1C(=O)N(C2CCC2)CCN1Cc1ncc(-c2ccccc2)s1` [Example 69, 1-cyclobutyl-4-((5-phenylthiazol-2-yl)methyl)piperazine-2,3-dione], 3 nM. In the case of `O=C1C(=O)N(C2CCC2)CCN1Cc1cnc(-c2ccccc2)s1` [Example 70, 1-cyclobutyl-4-((2-phenylthiazol-5-yl)methyl)piperazine-2,3-dione], the half-maximal effective concentration (EC50) is 4 nM.

For `O=c1c(=O)n(C2CCC2)ccn1Cc1ccc(-c2cccc(F)c2F)nn1` [Example 71, 1-cyclobutyl-4-((6-(2,3-difluorophenyl)pyridazin-3-yl)methyl)-1,4-dihydropyrazine-2,3-dione], the EC50 amounted to 6 nM.

In the case of `O=c1c(=O)n(C2CCC2)ccn1Cc1ccc(-c2ccccc2F)nc1` [Example 72, 1-cyclobutyl-4-((6-(2-fluorophenyl)pyridin-3-yl)methyl)-1,4-dihydropyrazine-2,3-dione], the concentration giving a half-maximal response (EC50) was 2 nM. For `O=C1C(=O)N(C2CCC2)CCN1Cc1cnc(-c2ccccc2F)cn1` [Example 73, 1-cyclobutyl-4-((5-(2-fluorophenyl)pyrazin-2-yl)methyl)piperazine-2,3-dione] the value was 9 nM. For `O=c1c(=O)n(C2CCC2)ccn1Cc1cnc(-c2ccccc2F)cn1` [Example 74, 1-cyclobutyl-4-((5-(2-fluorophenyl)pyrazin-2-yl)methyl)-1,4-dihydropyrazine-2,3-dione] the value was 5 nM.
